Laboratory results: publication PMC12195967, “Cobalt(II) Complexes of 4′–Nitro–Fenamic Acid: Characterization and Biological Evaluation” (Molecules, 2025)
“And” between values parts separate entries of the source, which are not always exact repeats. Equal entries are not always repeated.

How the values were obtained:
[1] = ABTS radical cation scavenging; conditions: compounds 0.1 mM; absorbance 734 nm after 1 min
Protocol: The ABTS-scavenging was measured through the discoloration of a dark green solution containing the cationic radical ABTS^•+, which was induced from the oxidation derived from hydrogen-donating antioxidants, either complexes or standards, and is often considered a marker of total oxidation capacity. […] Such an increase in activity upon coordination is expected for metal–NSAID complexes.
(§1) S1 Antioxidant activity assay
The antioxidant activity of the compound was evaluated via the ability to scavenge in vitro free radicals such as DPPH and ABTS and to reduce H2O2. All the experiments were carried out at least in triplicate and the standard deviation of absorbance was less than 10% […]
S1.2 Assay of radical cation ABTS−scavenging activity
The ABTS assay was performed to determine the activity of the compounds to scavenge the radical cation ABTS. Initially, a water solution of ABTS was prepared (2 mM).
ABTS radical cation (ABTS+·) was produced by the reaction of ABTS stock solution with potassium persulfate (0.17 mM) and the mixture was stored in the dark at room temperature for 12−16 h before its use. The ABTS was oxidized incompletely because the stoichiometric reaction ratio of ABTS and potassium persulfate is 1:0.5. The absorbance became maximal and stable only after more than 6 h of reaction although the oxidation of the ABTS started immediately. The radical was stable in this form for more than 2 days when allowed to stand in the dark at room temperature. Afterwards, the ABTS+· solution was diluted in ethanol to an absorbance of 0.70 at 734 nm and 10 μL of diluted compounds or standards (0.1 mM) in DMSO were added. The absorbance was recorded out exactly 1 min after initial mixing.
The ABTS–radical scavenging activity of the compounds was expressed as the percentage inhibition of the absorbance of the initial ABTS solution (ABTS%). […]

[2] = Reduction of hydrogen peroxide; conditions: compounds 0.1 mM; phosphate buffer pH 7.4; 10 min
Protocol: Harmful hydroxyl radicals are released when hydrogen peroxide interacts with transition metal ions, leading to oxidative stress. Consequently, both oxidative stress and the production of reactive oxygen species could be reduced by ^•OH scavengers and H2O2 reducing agents.
as §1
The antioxidant activity of the compound was evaluated via the ability to scavenge in vitro free radicals such as DPPH and ABTS and to reduce H2O2. […]
S1.3 Reduction of hydrogen peroxide
The ability of the compounds to reduce hydrogen peroxide (H2O2) was estimated according to the method described in the literature. The reaction mixture contained 20 μL of each of the tested compounds (0.1 mM) and 5 μL H2O2 solution (40 mM) in phosphate […]
buffer (50 mM, pH 7.4). The absorbance was measured at 230 nm after 10 min. The antioxidant activity (reduction of H2O2) of the compounds was expressed as the percentage decrease of the initial H2O2 solution (H2O2%). […]

[3] = biological target: T1, bovine serum albumin (BSA) (Bos taurus, UniProt P02769); experiment: Albumin tryptophan fluorescence quenching; format: binding; conditions: for relative fluorescence intensity of BSA (I/Io, %), final: % of the initial BSA fluorescence remaining, λem 345 nm; for K(BSA): Scatchard equation, no site marker; for Kq (BSA): τ0 = 10^−8 s
T1 construct: purchased Sigma-Aldrich Co
T1 sequence (P02769 25-607): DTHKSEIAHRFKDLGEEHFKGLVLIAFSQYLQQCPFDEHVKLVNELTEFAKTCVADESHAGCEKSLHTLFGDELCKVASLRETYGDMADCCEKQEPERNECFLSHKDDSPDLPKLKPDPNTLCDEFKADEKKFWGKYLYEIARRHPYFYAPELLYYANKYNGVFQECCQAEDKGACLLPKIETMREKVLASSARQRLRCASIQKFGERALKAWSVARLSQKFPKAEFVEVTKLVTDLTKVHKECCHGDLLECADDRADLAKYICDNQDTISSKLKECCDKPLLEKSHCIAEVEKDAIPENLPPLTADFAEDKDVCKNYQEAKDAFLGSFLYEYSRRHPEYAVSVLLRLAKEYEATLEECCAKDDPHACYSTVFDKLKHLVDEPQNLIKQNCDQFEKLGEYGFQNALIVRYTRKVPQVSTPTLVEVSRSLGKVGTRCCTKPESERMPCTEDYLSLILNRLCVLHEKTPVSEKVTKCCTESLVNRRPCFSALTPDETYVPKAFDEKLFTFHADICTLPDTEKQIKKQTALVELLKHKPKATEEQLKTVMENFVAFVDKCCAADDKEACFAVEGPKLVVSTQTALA
Protocol: (§2) The interaction between complexes 1–4 and albumins was investigated by recording the tryptophan fluorescence emission spectra and monitoring the quenching induced by incremental amounts of the complexes. For these experiments, albumins ([…]) were prepared in buffer solution (150 mM NaCl and 15 mM trisodium citrate at pH = 7) and their fluorescence emission spectra were recorded in the range 300—500 nm for λexcitation = 295 nm. Upon incremental addition of the compounds (Figures S13 and S14), a significant decrease in the intensity of the corresponding emission band at λmax,emission = 341 nm and 345 nm for HSA and BSA, respectively, was observed (up to 87% of the initial fluorescence, Figure 8). The observed fluorescence emission quenching might be a result of a change in the spatial conformation of the protein and specifically of rearrangement of its secondary structure, as a result of SA–complex interactions. To quantify this interaction, the fluorescence emission spectra (λexcitation = 295 nm) of the compounds were subtracted from the corresponding overall spectra. The potential influence of the inner-filter effect on the measurements was evaluated with Equation (S6) and was found negligible to affect the measurements.
(§3) The Stern–Volmer constant (KSV), the SA-quenching constant (Kq) and the SA-binding constant (K) of the compounds were determined using the Stern–Volmer and Scatchard equations (Equations (S2), (S3) and (S7)) and corresponding plots (Figures S15–S18). In these calculations, the fluorescence lifetime of tryptophan in SAs (το) was assumed to be 10^−8 s. […]
(§4) S5 Albumin−binding studies
(§5) S5.1 Interaction with albumins
(§6) In order to study the interaction of the compounds with the albumins, the compound was initially dissolved in DMSO (1 mM). Mixing of such solutions with the aqueous buffer solutions of the albumins used in the studies never exceeded 5% DMSO (v/v) in the final solution, which was needed due to low aqueous solubility of most […]
(§7) With the purpose to investigate if the compound can bind to carrier protein like serum albumins, albumin binding studies were carried out by tryptophan fluorescence quenching experiments using BSA or HSA (3 μM) in buffer (containing 15 mM trisodium citrate and 150 mM NaCl at pH 7.0). The quenching of the emission intensity of tryptophan residues of BSA at 344 nm or HSA at 342 nm was monitored using the compound as quenchers with increasing concentration. The fluorescence emission spectra of the compound were also recorded with λexcitation = 295 nm; in case that an additional emission band appeared the albumin−fluorescence emission spectra were corrected by subtracting the spectra of the compound. The influence of the inner−filter effect on the measurements was evaluated by the equation [9] :
(§8) Icorr = Imeas × 10 2 × 10 2 (equation S6) where Icorr = corrected intensity, Imeas = the measured intensity, c = the concentration of the quencher, d = the cuvette (1 cm), ε(λexc) and ε(λem) = the ε of the quencher at the excitation and the emission wavelength, respectively, as calculated from the UV−vis spectra of the […]
(§9) The Stern−Volmer and Scatchard graphs are used to study the interaction of the compound with the albumins. According to the Stern−Volmer quenching equation (equation S2), where Io = initial tryptophan fluorescence intensity of albumin, I = tryptophan fluorescence intensity of BSA after the addition of the quencher, Kq = quenching constant, KSV = Stern−Volmer constant, τo = average lifetime of albumin without the quencher, and, taking as fluorescence lifetime (τo) of tryptophan in albumin at around 10−8 s, KSV (in M−1) can be obtained by the slope of the diagram Io/I versus [compound] (Stern−Volmer plots), […]
(§10) and subsequently the quenching constant (Kq, in M−1s−1) may be calculated from equation From the Scatchard equation:
(§11) [Q] = nK − K Io (equation S7) where n is the number of binding sites per albumin and K is the albumin−binding constant […]

[4] = biological target: T2, human serum albumin (HSA) (Homo sapiens, UniProt P02768); experiment: Albumin tryptophan fluorescence quenching; format: binding; conditions: for relative fluorescence intensity of HSA (I/Io, %), final: % of the initial HSA fluorescence remaining, λem 341 nm; for K(HSA): Scatchard equation, no site marker; for Kq (HSA): τ0 = 10^−8 s
T2 construct: purchased Sigma-Aldrich Co
T2 sequence (P02768 25-609): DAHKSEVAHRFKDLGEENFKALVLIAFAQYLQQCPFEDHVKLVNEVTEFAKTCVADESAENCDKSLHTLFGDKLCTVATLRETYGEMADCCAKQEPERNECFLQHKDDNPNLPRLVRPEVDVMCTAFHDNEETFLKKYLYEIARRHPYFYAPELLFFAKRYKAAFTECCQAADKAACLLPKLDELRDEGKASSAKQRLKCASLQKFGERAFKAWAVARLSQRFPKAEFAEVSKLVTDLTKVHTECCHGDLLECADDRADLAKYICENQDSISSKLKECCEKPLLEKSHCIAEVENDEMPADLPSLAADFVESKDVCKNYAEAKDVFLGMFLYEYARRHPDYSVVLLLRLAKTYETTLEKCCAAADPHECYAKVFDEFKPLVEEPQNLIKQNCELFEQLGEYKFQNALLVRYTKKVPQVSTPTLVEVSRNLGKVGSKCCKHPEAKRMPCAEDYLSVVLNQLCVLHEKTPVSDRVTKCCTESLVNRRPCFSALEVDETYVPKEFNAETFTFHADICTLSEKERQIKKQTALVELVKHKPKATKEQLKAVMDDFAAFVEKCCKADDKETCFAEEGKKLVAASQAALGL
Protocol: as §2, §3, §4, §5, §6, §7, §8, §9, §10, §11

Solubility = format: physicochemical

SMILES	%ABTS radical scavenging activity (ABTS%) [1]	H2O2-reducing ability (H2O2%) [2]	relative fluorescence intensity of BSA (I/Io, %), final [3] [%]	K(BSA) [3]	Kq (BSA) [3]	relative fluorescence intensity of HSA (I/Io, %), final [4] [%]	K(HSA) [4]	Kq (HSA) [4]	solubility in H2O and MeCN (Solubility)
C[O-].C[O-].Cc1ccc2ccc3ccc(C)nc3c2n1.Cc1ccc2ccc3ccc(C)nc3c2n1.O=C([O-])c1ccccc1Nc1ccc([N+](=O)[O-])cc1.O=C([O-])c1ccccc1Nc1ccc([N+](=O)[O-])cc1.[Co+2].[Co+2] [Complex 4, [Co2(4′–NO2–fen)2(μ–CH3O)2(neoc)2]]	21.39 ± 0.22%	72.44 ± 0.42%	19.2	2.74 (±0.10) × 10^5 M^−1	2.19 (±0.05) × 10^13 M^−1s^−1	12.1	5.03 (±0.19) × 10^5 M^−1	3.98 (±0.12) × 10^13 M^−1s^−1	partially soluble
O=C([O-])c1ccccc1Nc1ccc([N+](=O)[O-])cc1.O=C([O-])c1ccccc1Nc1ccc([N+](=O)[O-])cc1.[Co+2].c1cnc2c(c1)ccc1cccnc12 [Complex 3, [Co(4′–NO2–fen)2(phen)]]	48.12 ± 0.88%	69.48 ± 0.37%	24.4	2.06 (±0.07) × 10^5 M^−1	1.64 (±0.04) × 10^13 M^−1s^−1	22.7	1.93 (±0.09) × 10^5 M^−1	1.87 (±0.04) × 10^13 M^−1s^−1	partially soluble
O=C([O-])c1ccccc1Nc1ccc([N+](=O)[O-])cc1.O=C([O-])c1ccccc1Nc1ccc([N+](=O)[O-])cc1.[Co+2].c1ccc(Nc2ccccn2)nc1 [Complex 2, [Co(4′–NO2–fen)2(bipyam)]]	43.65 ± 0.37%	77.59 ± 0.28%	35.3	1.75 (±0.08) × 10^5 M^−1	1.30 (±0.06) × 10^13 M^−1s^−1	21.1	2.56 (±0.10) × 10^5 M^−1	1.91 (±0.06) × 10^13 M^−1s^−1	partially soluble
CO.CO.CO.CO.O=C([O-])c1ccccc1Nc1ccc([N+](=O)[O-])cc1.O=C([O-])c1ccccc1Nc1ccc([N+](=O)[O-])cc1.[Co+2] [Complex 1, [Co(4′–NO2–fen)2(MeOH)4]]	24.68 ± 0.35%	72.68 ± 0.63%	45.6	1.68 (±0.07) × 10^5 M^−1	9.51 (±0.06) × 10^12 M^−1s^−1	32.8	1.68 (±0.04) × 10^5 M^−1	1.10 (±0.03) × 10^13 M^−1s^−1	partially soluble
O=C(O)c1ccccc1Nc1ccc([N+](=O)[O-])cc1 [4′–NO2–fenH, 4′–nitrofenamic acid]	Not active	66.46% and 66.46 ± 0.33%	45.0	3.31 (±0.14) × 10^5 M^−1	1.18 (±0.09) × 10^13 M^−1s^−1	54.3	3.82 (±0.09) × 10^5 M^−1	9.54 (±1.09) × 10^12 M^−1s^−1	
